Source: US9969694B2, “N-(arylalkyl)-N′-pyrazolyl-urea, thiourea, guanidine and cyanoguanidine compounds as TrkA kinase inhibitors” (Array BioPharma Inc., priority 2012, dated 2018)

Tests used:
Experiment in all cases: Off-Target Kinase Profiling
Format in all cases: biochemical
Details in all cases: 10 μM; ATP near Km
[1] = target: T1, HIPK1 (Homo sapiens, UniProt Q86Z02)
T1 construct: purchased Millipore, Inc. (KinaseProfiler service)
Protocol: (§1) Representative compounds of the invention (Examples 33 and 10) were tested for off-target kinase activity at a concentration of 10 μM by Millipore, Inc. in their KinaseProfiler™ service against all the kinases available in their full kinase panel. Compounds were run in duplicate at a concentration of ATP near the Km for each individual kinase according to Millipore's specifications. The results are shown in Table B. Data are reported as percent of control (POC) and are the average of the two replicates.

[2] = target: T2, DAPK2 (Homo sapiens, UniProt Q9UIK4)
T2 construct: purchased Millipore, Inc. (KinaseProfiler service)
Protocol: as §1

[3] = target: T3, ZAP-70 (Homo sapiens, UniProt P43403)
T3 construct: purchased Millipore, Inc. (KinaseProfiler service)
Protocol: as §1

[4] = target: T4, EphA8 (Homo sapiens, UniProt P29322)
T4 construct: purchased Millipore, Inc. (KinaseProfiler service)
Protocol: as §1

[5] = target: T5, BrSK1 (Homo sapiens, UniProt Q8TDC3)
T5 construct: purchased Millipore (KinaseProfiler service)
Protocol: as §1

[6] = target: T6, NLK (Homo sapiens, UniProt Q9UBE8)
T6 construct: purchased Millipore, Inc. (KinaseProfiler service)
Protocol: as §1

[7] = target: T7, Haspin (Homo sapiens, UniProt Q8TF76)
T7 construct: purchased Millipore, Inc. (KinaseProfiler service)
Protocol: as §1

[8] = target: T8, IRAK4 (Homo sapiens, UniProt Q9NWZ3)
T8 construct: purchased Millipore, Inc. (KinaseProfiler service)
Protocol: as §1

[9] = target: T9, PRKG1alpha (Homo sapiens, UniProt Q13976)
T9 construct: purchased Millipore, Inc. (KinaseProfiler service)
Protocol: as §1

[10] = target: T10, p38beta (Homo sapiens, UniProt Q15759)
T10 construct: purchased Millipore, Inc. (KinaseProfiler service)
Protocol: as §1

[11] = target: T11, TrkB (Homo sapiens, UniProt Q16620)
T11 construct: purchased Millipore, Inc. (KinaseProfiler service)
Protocol: as §1

[12] = target: T12, WNK3 (Homo sapiens, UniProt Q9BYP7)
T12 construct: purchased Millipore, Inc. (KinaseProfiler service)
Protocol: as §1

[13] = target: T13, PKD2 (Homo sapiens, UniProt Q9BZL6)
T13 construct: purchased Millipore, Inc. (KinaseProfiler service)
Protocol: as §1

[14] = target: T14, Rsk2 (Homo sapiens, UniProt P51812)
T14 construct: purchased Millipore, Inc. (KinaseProfiler service)
Protocol: as §1

[15] = target: T15, NEK7 (Homo sapiens, UniProt Q8TDX7)
T15 construct: purchased Millipore, Inc. (KinaseProfiler service)
Protocol: as §1

[16] = target: T16, IR (Homo sapiens, UniProt P06213)
T16 construct: purchased Millipore, Inc. (KinaseProfiler service)
Protocol: as §1

[17] = target: T17, Pim-3 (Homo sapiens, UniProt Q86V86)
T17 construct: purchased Millipore, Inc. (KinaseProfiler service)
Protocol: as §1

[18] = target: T18, Fgr (Homo sapiens, UniProt P09769)
T18 construct: purchased Millipore, Inc. (KinaseProfiler service)
Protocol: as §1

[19] = system: CK1_y
Protocol: as §1

[20] = target: T19, IKKbeta (Homo sapiens, UniProt O14920)
T19 construct: purchased Millipore, Inc. (KinaseProfiler service)
Protocol: as §1

[21] = target: T20, PKCalpha (Homo sapiens, UniProt P17252)
T20 construct: purchased Millipore, Inc. (KinaseProfiler service)
Protocol: as §1

[22] = target: T21, TSSK2 (Homo sapiens, UniProt Q96PF2)
T21 construct: purchased Millipore, Inc. (KinaseProfiler service)
Protocol: as §1

[23] = target: T22, CDK9/cyclinT1 (Homo sapiens, UniProt P50750)
T22 construct: purchased Millipore, Inc. (KinaseProfiler service)
Protocol: as §1

[24] = target: T23, Fms (Homo sapiens, UniProt P07333)
T23 construct: purchased Millipore, Inc. (KinaseProfiler service)
Protocol: as §1

[25] = target: T24, MAPKAP-K3 (Homo sapiens, UniProt Q16644)
T24 construct: purchased Millipore, Inc. (KinaseProfiler service)
Protocol: as §1

[26] = target: T25, AKT2 (Homo sapiens, UniProt P31751)
T25 construct: purchased Millipore (KinaseProfiler service)
Protocol: as §1

[27] = target: T26, Flt1 (Homo sapiens, UniProt P17948)
T26 construct: purchased Millipore, Inc. (KinaseProfiler service)
Protocol: as §1

[28] = target: T27, CDK3/cyclinE (Homo sapiens, UniProt Q00526)
T27 construct: purchased Millipore, Inc. (KinaseProfiler service)
Protocol: as §1

[29] = target: T28, Rsk1 (Homo sapiens, UniProt Q15418)
T28 construct: purchased Millipore, Inc. (KinaseProfiler service)
Protocol: as §1

[30] = target: T29, CDK2/cyclinA (Homo sapiens, UniProt P24941)
T29 construct: purchased Millipore (KinaseProfiler service)
Protocol: as §1

[31] = target: T30, MAP3K5 (Homo sapiens, UniProt Q99683)
T30 construct: purchased Millipore, Inc. (KinaseProfiler service)
Protocol: as §1

[32] = target: T31, CLK3 (Homo sapiens, UniProt P49761)
T31 construct: purchased Millipore, Inc. (KinaseProfiler service)
Protocol: as §1

[33] = target: T32, PKCepsilon (Homo sapiens, UniProt Q02156)
T32 construct: purchased Millipore, Inc. (KinaseProfiler service)
Protocol: as §1

[34] = target: T33, ULK3 (Homo sapiens, UniProt Q6PHR2)
T33 construct: purchased Millipore, Inc. (KinaseProfiler service)
Protocol: as §1

[35] = target: T34, MARK2 (Homo sapiens, UniProt Q7KZI7)
T34 construct: purchased Millipore, Inc. (KinaseProfiler service)
Protocol: as §1

[36] = target: T35, CK1gamma1 (Homo sapiens, UniProt Q9HCP0)
T35 construct: purchased Millipore, Inc. (KinaseProfiler service)
Protocol: as §1

[37] = target: T36, PTK6 (Homo sapiens, UniProt Q13882)
T36 construct: purchased Millipore, Inc. (KinaseProfiler service)
Protocol: as §1

[38] = target: T37, DCAMKL2 (Homo sapiens, UniProt Q8N568)
T37 construct: purchased Millipore, Inc. (KinaseProfiler service)
Protocol: as §1

[39] = target: T38, DDR2 (Homo sapiens, UniProt Q16832)
T38 construct: purchased Millipore, Inc. (KinaseProfiler service)
Protocol: as §1

[40] = target: T39, JNK1alpha1 (Homo sapiens, UniProt P45983)
T39 construct: purchased Millipore, Inc. (KinaseProfiler service)
Protocol: as §1

[41] = target: T40, IGF-1R Activated (Homo sapiens, UniProt P08069)
T40 construct: purchased Millipore, Inc. (KinaseProfiler service)
Protocol: as §1

T11 sequence (Q16620 32-822): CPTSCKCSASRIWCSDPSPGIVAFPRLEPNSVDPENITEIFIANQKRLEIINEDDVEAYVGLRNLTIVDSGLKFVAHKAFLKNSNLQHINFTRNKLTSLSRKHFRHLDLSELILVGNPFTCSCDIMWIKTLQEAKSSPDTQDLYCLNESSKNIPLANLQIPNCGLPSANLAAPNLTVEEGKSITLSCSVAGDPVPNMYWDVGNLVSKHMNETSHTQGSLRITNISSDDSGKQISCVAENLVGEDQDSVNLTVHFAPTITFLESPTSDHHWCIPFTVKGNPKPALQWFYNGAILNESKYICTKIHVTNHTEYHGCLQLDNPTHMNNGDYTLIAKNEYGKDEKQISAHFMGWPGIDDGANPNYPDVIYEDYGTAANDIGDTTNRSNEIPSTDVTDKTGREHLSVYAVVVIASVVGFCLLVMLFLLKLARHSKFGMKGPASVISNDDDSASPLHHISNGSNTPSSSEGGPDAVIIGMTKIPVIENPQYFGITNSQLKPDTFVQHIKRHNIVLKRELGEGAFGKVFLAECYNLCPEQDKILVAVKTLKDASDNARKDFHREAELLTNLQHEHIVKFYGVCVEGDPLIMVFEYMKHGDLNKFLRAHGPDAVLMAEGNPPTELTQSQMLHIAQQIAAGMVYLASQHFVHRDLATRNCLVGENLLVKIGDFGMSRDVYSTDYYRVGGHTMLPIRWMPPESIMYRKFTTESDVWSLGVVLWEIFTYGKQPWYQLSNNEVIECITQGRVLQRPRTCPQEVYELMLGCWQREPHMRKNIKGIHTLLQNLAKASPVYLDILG
T16 sequence (P06213 28-1382): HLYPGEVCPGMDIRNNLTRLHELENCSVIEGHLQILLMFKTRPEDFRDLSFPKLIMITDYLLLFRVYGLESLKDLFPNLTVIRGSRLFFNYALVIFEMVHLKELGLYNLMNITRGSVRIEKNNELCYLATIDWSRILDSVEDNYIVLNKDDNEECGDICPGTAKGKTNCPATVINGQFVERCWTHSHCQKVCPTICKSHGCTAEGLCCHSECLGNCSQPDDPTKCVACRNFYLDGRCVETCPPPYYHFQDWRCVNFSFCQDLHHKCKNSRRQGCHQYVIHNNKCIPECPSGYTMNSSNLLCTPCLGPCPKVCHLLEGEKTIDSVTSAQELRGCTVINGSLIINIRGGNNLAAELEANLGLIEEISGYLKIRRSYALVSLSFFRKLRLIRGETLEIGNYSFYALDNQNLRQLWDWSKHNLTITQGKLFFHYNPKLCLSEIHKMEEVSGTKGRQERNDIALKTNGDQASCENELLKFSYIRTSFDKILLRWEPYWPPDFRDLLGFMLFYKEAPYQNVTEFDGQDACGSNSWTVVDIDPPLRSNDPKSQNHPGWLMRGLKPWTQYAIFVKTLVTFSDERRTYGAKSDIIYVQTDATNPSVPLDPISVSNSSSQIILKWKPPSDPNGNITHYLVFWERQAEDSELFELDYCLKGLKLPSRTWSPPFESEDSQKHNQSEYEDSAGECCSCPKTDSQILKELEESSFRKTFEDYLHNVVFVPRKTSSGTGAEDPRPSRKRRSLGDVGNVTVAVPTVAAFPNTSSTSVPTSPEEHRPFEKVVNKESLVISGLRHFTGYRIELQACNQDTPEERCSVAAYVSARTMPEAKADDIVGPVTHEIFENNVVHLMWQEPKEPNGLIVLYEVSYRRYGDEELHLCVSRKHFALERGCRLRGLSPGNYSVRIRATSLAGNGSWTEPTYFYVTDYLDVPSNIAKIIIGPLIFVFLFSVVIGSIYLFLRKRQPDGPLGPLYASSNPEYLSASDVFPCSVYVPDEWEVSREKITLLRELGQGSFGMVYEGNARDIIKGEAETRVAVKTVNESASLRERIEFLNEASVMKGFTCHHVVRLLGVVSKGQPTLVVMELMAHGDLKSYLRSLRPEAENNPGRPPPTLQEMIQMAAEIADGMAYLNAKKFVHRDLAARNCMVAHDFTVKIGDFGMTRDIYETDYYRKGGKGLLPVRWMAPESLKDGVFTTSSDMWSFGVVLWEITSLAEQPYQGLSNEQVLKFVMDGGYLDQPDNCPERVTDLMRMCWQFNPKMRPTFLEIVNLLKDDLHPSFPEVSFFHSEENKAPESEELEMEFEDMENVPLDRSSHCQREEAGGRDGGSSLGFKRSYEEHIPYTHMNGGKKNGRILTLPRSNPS
T4 sequence (P29322 28-1005): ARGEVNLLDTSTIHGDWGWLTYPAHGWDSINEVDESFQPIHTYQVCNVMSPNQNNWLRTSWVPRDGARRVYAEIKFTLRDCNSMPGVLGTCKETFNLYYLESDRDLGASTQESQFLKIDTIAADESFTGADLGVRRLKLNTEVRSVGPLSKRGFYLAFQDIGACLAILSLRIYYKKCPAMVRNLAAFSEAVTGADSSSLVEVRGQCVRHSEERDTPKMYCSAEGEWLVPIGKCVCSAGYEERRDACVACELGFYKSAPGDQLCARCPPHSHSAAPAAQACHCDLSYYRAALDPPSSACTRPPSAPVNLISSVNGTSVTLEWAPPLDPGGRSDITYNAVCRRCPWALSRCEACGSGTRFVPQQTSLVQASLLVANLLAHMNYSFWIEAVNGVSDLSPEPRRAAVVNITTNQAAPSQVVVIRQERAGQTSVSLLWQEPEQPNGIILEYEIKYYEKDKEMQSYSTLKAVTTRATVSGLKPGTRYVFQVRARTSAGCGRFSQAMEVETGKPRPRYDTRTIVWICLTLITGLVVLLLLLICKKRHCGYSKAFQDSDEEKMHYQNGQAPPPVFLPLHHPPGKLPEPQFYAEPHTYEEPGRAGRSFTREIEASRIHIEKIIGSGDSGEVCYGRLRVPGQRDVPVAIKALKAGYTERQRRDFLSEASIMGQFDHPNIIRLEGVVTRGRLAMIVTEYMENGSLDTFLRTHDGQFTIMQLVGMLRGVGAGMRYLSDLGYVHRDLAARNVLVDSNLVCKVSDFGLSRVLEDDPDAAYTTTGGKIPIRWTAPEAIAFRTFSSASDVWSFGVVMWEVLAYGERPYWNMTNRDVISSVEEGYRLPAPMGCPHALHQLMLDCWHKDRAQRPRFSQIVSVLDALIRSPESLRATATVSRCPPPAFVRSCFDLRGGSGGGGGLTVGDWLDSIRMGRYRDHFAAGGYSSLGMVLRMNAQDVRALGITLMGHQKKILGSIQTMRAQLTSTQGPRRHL
T10 sequence (Q15759 whole entry): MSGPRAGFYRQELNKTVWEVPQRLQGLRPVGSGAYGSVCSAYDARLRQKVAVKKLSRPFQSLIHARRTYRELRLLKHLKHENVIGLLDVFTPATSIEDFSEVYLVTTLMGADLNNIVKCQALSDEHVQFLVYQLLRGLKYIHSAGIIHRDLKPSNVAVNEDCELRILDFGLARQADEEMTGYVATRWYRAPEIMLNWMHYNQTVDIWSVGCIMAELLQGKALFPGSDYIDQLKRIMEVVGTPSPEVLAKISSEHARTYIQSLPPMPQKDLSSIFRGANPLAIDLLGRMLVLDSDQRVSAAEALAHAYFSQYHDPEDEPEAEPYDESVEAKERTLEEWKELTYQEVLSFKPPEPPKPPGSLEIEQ
T40 sequence (P08069 959-1367 limits assumed): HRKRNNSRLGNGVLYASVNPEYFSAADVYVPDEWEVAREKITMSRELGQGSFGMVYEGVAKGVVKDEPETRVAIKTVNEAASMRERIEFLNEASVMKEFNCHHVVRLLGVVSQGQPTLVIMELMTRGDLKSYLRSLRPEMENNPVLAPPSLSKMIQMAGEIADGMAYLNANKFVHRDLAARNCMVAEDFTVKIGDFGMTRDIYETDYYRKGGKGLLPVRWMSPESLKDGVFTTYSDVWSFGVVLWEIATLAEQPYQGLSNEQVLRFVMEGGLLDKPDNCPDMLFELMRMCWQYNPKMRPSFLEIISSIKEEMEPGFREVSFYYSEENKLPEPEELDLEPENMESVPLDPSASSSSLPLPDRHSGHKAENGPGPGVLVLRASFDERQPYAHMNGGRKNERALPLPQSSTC
T5 sequence (Q8TDC3 whole entry): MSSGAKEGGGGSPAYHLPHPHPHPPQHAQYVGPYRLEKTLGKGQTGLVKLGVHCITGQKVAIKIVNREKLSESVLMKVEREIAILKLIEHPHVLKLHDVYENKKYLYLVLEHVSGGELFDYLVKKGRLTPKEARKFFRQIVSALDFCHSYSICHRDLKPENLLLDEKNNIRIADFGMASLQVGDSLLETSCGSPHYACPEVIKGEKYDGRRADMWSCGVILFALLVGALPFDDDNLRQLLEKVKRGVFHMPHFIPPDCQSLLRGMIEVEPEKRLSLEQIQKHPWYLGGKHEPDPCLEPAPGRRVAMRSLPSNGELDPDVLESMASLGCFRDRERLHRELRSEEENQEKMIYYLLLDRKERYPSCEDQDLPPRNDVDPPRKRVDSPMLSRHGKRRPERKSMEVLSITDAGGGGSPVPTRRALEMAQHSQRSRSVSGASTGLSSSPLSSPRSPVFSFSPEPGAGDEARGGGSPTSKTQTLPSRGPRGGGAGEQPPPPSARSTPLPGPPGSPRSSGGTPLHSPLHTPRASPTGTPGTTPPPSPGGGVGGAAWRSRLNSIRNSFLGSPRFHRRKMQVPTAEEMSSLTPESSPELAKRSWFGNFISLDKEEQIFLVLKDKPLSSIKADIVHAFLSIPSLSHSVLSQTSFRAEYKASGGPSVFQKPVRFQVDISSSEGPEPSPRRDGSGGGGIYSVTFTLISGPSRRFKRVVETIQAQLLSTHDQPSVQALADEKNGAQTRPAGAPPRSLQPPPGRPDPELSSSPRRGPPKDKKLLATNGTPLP
T21 sequence (Q96PF2 whole entry): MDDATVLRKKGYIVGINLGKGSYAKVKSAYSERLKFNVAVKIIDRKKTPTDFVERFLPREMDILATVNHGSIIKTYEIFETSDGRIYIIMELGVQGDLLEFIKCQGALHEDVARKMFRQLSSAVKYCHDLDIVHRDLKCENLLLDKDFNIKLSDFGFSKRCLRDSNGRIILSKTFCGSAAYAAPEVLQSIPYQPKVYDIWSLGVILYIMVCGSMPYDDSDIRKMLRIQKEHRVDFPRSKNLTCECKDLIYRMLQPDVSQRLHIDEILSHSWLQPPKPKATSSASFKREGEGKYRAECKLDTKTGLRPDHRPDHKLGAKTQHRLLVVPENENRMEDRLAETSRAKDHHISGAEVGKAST

COCc1ccc(C2CCC2)c(CNC(=O)Nc2c(C)c(-c3cnc(C)nc3)nn2-c2ccccc2)c1 [Example 10, 1-(2-cyclobutyl-5-(methoxymethyl)benzyl)-3-(4-methyl-3-(2-methylpyrimidin-5-yl)-1-phenyl-1H-pyrazol-5-yl)urea]
Avg POC HIPK1 [1]: 100.5 POC | Avg POC DAPK2 [2]: 105 POC | Avg POC ZAP-70 [3]: 120.5 POC | Avg POC EphA8 [4]: 97.5 POC | Avg POC BrSK1 [5]: 86.5 POC | Avg POC NLK [6]: 107 POC | Avg POC Haspin [7]: 80.5 POC | Avg POC IRAK4 [8]: 122.5 POC | Avg POC PRKG1alpha [9]: 113 POC | Avg POC p38beta [10]: 101.5 POC | Avg POC TrkB [11]: 0.5 POC | Avg POC WNK3 [12]: 101.5 POC | Avg POC PKD2 [13]: 106 POC | Avg POC Rsk2 [14]: 129.5 POC | Avg POC NEK7 [15]: 110 POC | Avg POC IR [16]: 90 POC | Avg POC Pim-3 [17]: 105.5 POC | Avg POC Fgr [18]: 97 POC | Avg POC CK1_y [19]: 97 POC | Avg POC IKKbeta [20]: 104.5 POC | Avg POC PKCalpha [21]: 100.5 POC | Avg POC TSSK2 [22]: 90 POC | Avg POC CDK9/cyclinT1 [23]: 98 POC | Avg POC Fms [24]: 83.5 POC | Avg POC MAPKAP-K3 [25]: 98.5 POC | Avg POC AKT2 [26]: 142 POC | Avg POC Flt1 [27]: 88 POC | Avg POC CDK3/cyclinE [28]: 90.5 POC | Avg POC Rsk1 [29]: 96.5 POC | Avg POC CDK2/cyclinA [30]: 98.5 POC | Avg POC MAP3K5 [31]: 99 POC | Avg POC CLK3 [32]: 104.5 POC | Avg POC PKCepsilon [33]: 83.5 POC | Avg POC ULK3 [34]: 93.5 POC | Avg POC MARK2 [35]: 98.5 POC | Avg POC CK1gamma1 [36]: 79 POC | Avg POC PTK6 [37]: 106.5 POC | Avg POC DCAMKL2 [38]: 96.5 POC | Avg POC DDR2 [39]: 105.5 POC | Avg POC JNK1alpha1 [40]: 98 POC | Avg POC IGF-1R Activated [41]: 93.5 POC

COCc1ccc(C(F)(F)F)c(CNC(=O)Nc2c(C)c(-c3cnn(C)c3)nn2-c2ccccc2)c1 [Example 33, 1-(1′,4-dimethyl-1-phenyl-1H,1′H-[3,4′-bipyrazol]-5-yl)-3-(5-(methoxymethyl)-2-(trifluoromethyl)benzyl)urea]
Avg POC HIPK1 [1]: 115.5 POC | Avg POC DAPK2 [2]: 109.5 POC | Avg POC ZAP-70 [3]: 149 POC | Avg POC EphA8 [4]: 123 POC | Avg POC BrSK1 [5]: 119 POC | Avg POC NLK [6]: 121 POC | Avg POC Haspin [7]: 109 POC | Avg POC IRAK4 [8]: 109.5 POC | Avg POC PRKG1alpha [9]: 122.5 POC | Avg POC p38beta [10]: 111.5 POC | Avg POC TrkB [11]: 0 POC | Avg POC WNK3 [12]: 111 POC | Avg POC PKD2 [13]: 106 POC | Avg POC Rsk2 [14]: 146 POC | Avg POC NEK7 [15]: 116.5 POC | Avg POC IR [16]: 68 POC | Avg POC Pim-3 [17]: 103 POC | Avg POC Fgr [18]: 121 POC | Avg POC CK1_y [19]: 97.5 POC | Avg POC IKKbeta [20]: 120.5 POC | Avg POC PKCalpha [21]: 104.5 POC | Avg POC TSSK2 [22]: 131 POC | Avg POC CDK9/cyclinT1 [23]: 108 POC | Avg POC Fms [24]: 88.5 POC | Avg POC MAPKAP-K3 [25]: 119.5 POC | Avg POC AKT2 [26]: 199 POC | Avg POC Flt1 [27]: 91 POC | Avg POC CDK3/cyclinE [28]: 98.5 POC | Avg POC Rsk1 [29]: 119.5 POC | Avg POC CDK2/cyclinA [30]: 103.5 POC | Avg POC MAP3K5 [31]: 100 POC | Avg POC CLK3 [32]: 102 POC | Avg POC PKCepsilon [33]: 92 POC | Avg POC ULK3 [34]: 99.5 POC | Avg POC MARK2 [35]: 103.5 POC | Avg POC CK1gamma1 [36]: 105.5 POC | Avg POC PTK6 [37]: 118.5 POC | Avg POC DCAMKL2 [38]: 254.5 POC | Avg POC DDR2 [39]: 111 POC | Avg POC JNK1alpha1 [40]: 103 POC | Avg POC IGF-1R Activated [41]: 86.5 POC
